From patent US20090233871A1, “Complexed polypeptide and adjuvant for improved vaccines” (priority 2004, published 2009)

Key:
IFNγ-secreting CD8+ CTLs = test: primary IFNγ Elispot of CD8+ CTLs from mice primed with peptide plus CpG; conditions: 100 μg polypeptide + 100 μg CpG + 10 μg MPL-AF s.c., spleens day 10
[1] = system: CD8+ CTLs, T2 stimulators pulsed with polypeptide; format: in vivo, HLA-A2 transgenic mice; conditions: 100 μg CpG, equimolar CpG:peptide, s.c., day 10 (FIG. 8)

| Sequence | frequencies of IFNγ-secreting CTLs (priming efficiency) (IFNγ-secreting CD8+ CTLs) | priming on addition of a KCSRNR amino acid sequence vs native polypeptide [1] |
| --- | --- | --- |
| LTFNYRNL (Synthetically generated peptide) [H60] | most inefficient | – |
| KTWGQYWQV | – | increased priming |
